Earlier results, collected in patent US11583515B2, “Composition and method for rapidly inducing an endogenous ketosis” (priority 2015, dated 2023).
One block for each molecule: values may come before it.

Experiments:
[1] = racemic mixture of R and S enantiomers, taken orally
[2] = tested on: insulin signaling cascade; conditions: 600, 1200, and 1800 mg daily for four weeks; individuals with impaired insulin signaling cascades
[3] = in vivo
muscle cells = conditions: with and without the presence of insulin or exercise

- bioavailability after absorption [1]: ~30%
- complete plasma clearance [1]: approximately three hours
- half-life [1]: thirty minutes to one and one half hours
- effect on mother or child (2014 study, treating peripheral neuropathy during pregnancy): no harmful effect
Molecule: O=C(O)CCCCC1CCSS1 (racemic) [Alpha Lipoic acid, 1,2-dithiolane-3-pentanoic acid]
- improvement of effectiveness of the signaling cascade on glucose uptake and utilization [2]: 25%
- safety of supplementation (animal or human studies, various ranges of intake, large doses or extended use): safe with no widespread serious or life-threatening reactions reported

Molecule: [Cr] [Chromium]
- absorption, share of an ingested dose [3]: 1-2%
- complete plasma clearance half-life [3]: 8 to 12 h
- rate of cellular glucose uptake (muscle cells): several times normal
- doses used without any reported adverse effects (chromium containing supplements): up to 1000 mcg

- blood level of beta-hydroxybutyrate, acetoacetate, and acetone (Dawley rats; supplementation): increases
Molecule: beta-hydroxybutyrate salts
- effect on triglycerides or total cholesterol (Dawley rats; after four weeks of repeated daily ingestion): no effect
- effect on blood glucose numbers (Dawley rats; orally supplemented, 28 days): improved
- effect to promote weight loss (Dawley rats; orally supplemented, 28 days): no effect
